According to patent US20160376240A1, “6 Phenyl or 6 Pyridin 3 YL Indazole Derivatives and Methods of Use” (ABBVIE INC., priority 2014, published 2016):

Target: T1, TrkA (Homo sapiens, UniProt P04629)
T1 construct: purchased Invitrogen PV3144
Test: TrkA kinase inhibition, HTRF assay
Format: biochemical
Settings: LCK peptide substrate 125 nM, TrkA 2-10 nM pre-incubated with ATP 200 μM
Outline: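 TrkA (2-10 nM) preactivated 20 min with 200 μM ATP in HEPES pH 7.4 with Mg2+/Mn2+, then compound for 10 min, then 125 nM biotinylated LCK-peptide for 1 h at ambient temperature. HTRF 665/620 ratio read; IC50 fitted from initial-rate percent inhibition.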

T1 sequence (P04629 33-796): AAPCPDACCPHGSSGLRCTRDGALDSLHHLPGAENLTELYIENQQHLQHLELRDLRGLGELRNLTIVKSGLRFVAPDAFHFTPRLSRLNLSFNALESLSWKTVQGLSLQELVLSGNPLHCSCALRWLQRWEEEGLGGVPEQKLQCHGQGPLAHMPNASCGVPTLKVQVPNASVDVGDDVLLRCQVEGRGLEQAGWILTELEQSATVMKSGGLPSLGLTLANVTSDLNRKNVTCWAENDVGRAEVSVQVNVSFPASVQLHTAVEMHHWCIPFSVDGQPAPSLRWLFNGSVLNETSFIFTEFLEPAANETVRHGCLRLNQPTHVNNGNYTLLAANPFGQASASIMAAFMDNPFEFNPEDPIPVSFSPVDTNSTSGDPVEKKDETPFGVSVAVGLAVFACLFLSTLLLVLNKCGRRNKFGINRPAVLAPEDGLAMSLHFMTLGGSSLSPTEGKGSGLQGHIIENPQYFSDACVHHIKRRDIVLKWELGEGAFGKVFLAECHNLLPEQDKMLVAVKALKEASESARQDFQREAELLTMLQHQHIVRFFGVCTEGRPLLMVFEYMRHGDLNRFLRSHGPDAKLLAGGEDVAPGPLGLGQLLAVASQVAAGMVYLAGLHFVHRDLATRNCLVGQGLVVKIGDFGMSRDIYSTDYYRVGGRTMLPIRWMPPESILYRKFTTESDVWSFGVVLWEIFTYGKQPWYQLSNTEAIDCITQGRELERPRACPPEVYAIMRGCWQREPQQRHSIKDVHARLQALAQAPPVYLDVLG

SMILES	IC50 [nM]
CNC(=O)c1ccc(-c2cc(OC3CCOCC3)c3c(N)n[nH]c3c2)cc1N1CCNCC1 [Example 112, 4-[3-amino-4-(tetrahydro-2H-pyran-4-yloxy)-1H-indazol-6-yl]-N-methyl-2-(piperazin-1-yl)benzamide]	7.11
Cc1n[nH]c2cc(-c3ccc(C(=O)NC4CC4)c(N4CCN(c5ccccc5)CC4)c3)cc(OC3CCOCC3)c12 [Example 117, N-cyclopropyl-4-[3-methyl-4-(tetrahydro-2H-pyran-4-yloxy)-1H-indazol-6-yl]-2-(4-phenylpiperazin-1-yl)benzamide]	17.7
CNC(=O)c1ccc(-c2cc(O[C@H](C)C(F)(F)F)c3c(N)n[nH]c3c2)cc1OCCOc1ccccc1 [Example 106, 4-(3-amino-4-{[(2R)-1,1,1-trifluoropropan-2-yl]oxy}-1H-indazol-6-yl)-N-methyl-2-(2-phenoxyethoxy)benzamide]	2.67
CNC(=O)c1ccc(-c2cc(OC3CCOCC3)c3c(C)n[nH]c3c2)cc1N1CCN(C(=O)OCC(F)(F)F)CC1 [Example 136, 2,2,2-trifluoroethyl 4-{2-(methylcarbamoyl)-5-[3-methyl-4-(tetrahydro-2H-pyran-4-yloxy)-1H-indazol-6-yl]phenyl}piperazine-1-carboxylate]	18.1
NC(=O)c1ccc(-c2cc(OC3CCCC3)c3c(N)n[nH]c3c2)cc1N1CCN(CC(=O)N2CCCCC2)CC1 [Example 107, 4-[3-amino-4-(cyclopentyloxy)-1H-indazol-6-yl]-2-{4-[2-oxo-2-(piperidin-1-yl)ethyl]piperazin-1-yl}benzamide]	44
CNC(=O)c1ccc(-c2cc(O[C@H](C)C(F)(F)F)c3c(N)n[nH]c3c2)cc1N1CCN(CCC(C)(C)C)CC1 [Example 51, 4-(3-amino-4-{[(2R)-1,1,1-trifluoropropan-2-yl]oxy}-1H-indazol-6-yl)-2-[4-(3,3-dimethylbutyl)piperazin-1-yl]-N-methylbenzamide]	75.4
Cc1n[nH]c2cc(-c3ccc(C(N)=O)c(N4CCN(C(=O)OC(C)(C)C)CC4)c3)cc(OC3CCOCC3)c12 [Example 140, tert-butyl 4-{2-carbamoyl-5-[3-methyl-4-(tetrahydro-2H-pyran-4-yloxy)-1H-indazol-6-yl]phenyl}piperazine-1-carboxylate]	31.9
CNC(=O)c1ccc(-c2cc(O[C@H](C)C(F)(F)F)c3c(N)n[nH]c3c2)cc1N1CCN(c2ccccc2)CC1 [Example 48, 4-(3-amino-4-{[(2R)-1,1,1-trifluoropropan-2-yl]oxy}-1H-indazol-6-yl)-N-methyl-2-(4-phenylpiperazin-1-yl)benzamide]	38.5
CCNC(=O)c1ccc(-c2cc(OC3CCOCC3)c3c(C)n[nH]c3c2)cc1N1CCN(c2ccccc2)CC1 [Example 115, N-ethyl-4-[3-methyl-4-(tetrahydro-2H-pyran-4-yloxy)-1H-indazol-6-yl]-2-(4-phenylpiperazin-1-yl)benzamide]	32.8
C=CC(=O)Nc1ccc(-c2cc(OC3CCOCC3)c3c(C)n[nH]c3c2)cc1N1CCN(C2CCCCC2)CC1 [Example 131, N-{2-(4-cyclohexylpiperazin-1-yl)-4-[3-methyl-4-(tetrahydro-2H-pyran-4-yloxy)-1H-indazol-6-yl]phenyl}acrylamide]	46.9
CNC(=O)c1ccc(-c2cc(O[C@H](C)C(F)(F)F)c3c(N)n[nH]c3c2)cc1N1CCN(C(=O)C(C)(C)C)CC1 [Example 54, 4-(3-amino-4-{[(2R)-1,1,1-trifluoropropan-2-yl]oxy}-1H-indazol-6-yl)-2-[4-(2,2-dimethylpropanoyl)piperazin-1-yl]-N-methylbenzamide]	101
Cc1n[nH]c2cc(-c3ccc(C#N)c(N4CCN(C(=O)OC(C)(C)C)CC4)c3)cc(OC3CCOCC3)c12 [Example 139, tert-butyl 4-{2-cyano-5-[3-methyl-4-(tetrahydro-2H-pyran-4-yloxy)-1H-indazol-6-yl]phenyl}piperazine-1-carboxylate]	6.86
